Experimental data reported in patent US10626144B2, “Peptide derivatives and uses thereof” (Nosopharm, priority 2014, dated 2020).
Square brackets hold non-standard residues; d marks the D form. Peptide text beside a SMILES is read from it. Dab(3S-OH) = NC[C@H](O)[C@H](N)C(=O)O; ΔZArg = N=C(N)NCC/C=C(\N)C(=O)O; dOrn = NCCC[C@@H](N)C(=O)O

What was measured:
Kp #1 (NCTC13439) = assay: MIC / resistance profile, multidrug-resistant strain; conditions: multidrug-resistant K. pneumoniae NCTC13439
Kp #5 (6560) = assay: as above; conditions: multidrug-resistant K. pneumoniae 6560
[1] = tested on: Staphylococcus aureus ATCC 13709; assay: MIC, broth microdilution (CLSI), reference strain; conditions: CAMHB
Kp #3 (A33504) = assay: MIC / resistance profile, multidrug-resistant strain; conditions: multidrug-resistant K. pneumoniae A33504
Ec #4 (GUE) = assay: as above; conditions: multidrug-resistant E. coli GUE
[2] = Tolerability in mice, single i.v. bolus dose; conditions: female, CD-1, mouse, in vivo, iv
[3] = tested on: Klebsiella pneumoniae ATCC BAA2470; assay: Murine peritonitis/sepsis model with analog 24.66 (Example 12); conditions: for Alive animals at 24 hrs: N=8
Experimental: Female CD-1 mice (weight, 25 g; Charles River) were used throughout the study. Six groups of 8 mice were inoculated by intraperitoneal (i.p.) injection of 0.5 ml Klebsiella pneumoniae ATCC BAA2470 suspension containing 10^8.1 CFU/ml in 0.9% sterile saline and 5% (wt/vol) mucin. One hour after bacterial challenge on day 0, mice were treated by intravenous (i.v.) route with the antibiotic solutions formulated in 0.9% sterile saline.
One group was administered with single bolus dose of tigecycline at 20 mg/kg. One group received no treatment.

[4] = tested on: Escherichia coli ATCC 25922; assay: MIC, broth microdilution (CLSI), reference strain; conditions: CAMHB
[5] = tested on: Klebsiella pneumoniae ATCC 43816; assay: MIC, broth microdilution (CLSI), reference strain; conditions: CAMHB
Ec #5 (DSM22315) = assay: MIC / resistance profile, multidrug-resistant strain; conditions: multidrug-resistant E. coli DSM22315
[6] = tested on: Pseudomonas aeruginosa ATCC 27853; assay: MIC, broth microdilution (CLSI), reference strain; conditions: CAMHB
[7] = target: N-type calcium channels (Cav2.2) (Rattus norvegicus (Rat), UniProt Q02294); assay: biochemical; assay type: binding; conditions: read-out: IC50 Cav2.2
Ec #1 (NCTC13476) = assay: MIC / resistance profile, multidrug-resistant strain; conditions: multidrug-resistant E. coli NCTC13476
Kp #4 (ATCC BAA1904) = assay: as above; conditions: multidrug-resistant K. pneumoniae ATCC BAA1904
Kp #2 (DUB) = assay: as above; conditions: multidrug-resistant K. pneumoniae DUB
Ec #3 (EGB957) = assay: as above; conditions: multidrug-resistant E. coli EGB957
[8] = tested on: Acinetobacter baumannii ATCC 19606; assay: MIC, broth microdilution (CLSI), reference strain; conditions: CAMHB
[9] = tested on: Klebsiella pneumoniae ATCC BAA2470; assay: Murine peritonitis/sepsis model with Odilorhabdin A (Example 13); assay type: in vivo, CD-1 mice; conditions: 15 mg/kg i.v. single bolus, n=8 (tigecycline)

Question: Which “MIC Kp#1” value (Kp #1 (NCTC13439)) does the source give for `C[C@H](NC(=O)[C@@H](NC(=O)[C@@H](N)CCCCN)[C@@H](O)CN)C(=O)NCC(=O)N[C@H](CCCN)C(=O)N1CCC[C@H]1C(=O)N[C@@H](Cc1cnc[nH]1)C(=O)N[C@@H](CCCCN)C(=O)N/C(=C\CCNC(=N)N)C(=O)O` [24.66] (H-K[Dab(3S-OH)]AG[dOrn]PHK[ΔZArg]-OH) here?
Answer: Its value is “++ (≤8 μg/mL)”.

Question: What about the “MIC Kp #5” value (Kp #5 (6560)) of the same molecule?
Answer: The value was “++ (≤8 μg/mL)”.

Question: What about the “Sa: MIC Staphylococcus aureus ATCC 13709” value [1] of the same molecule?
Answer: The value was “+ (≤32 μg/mL)”.

Question: And the “MIC Kp#3” value (Kp #3 (A33504))?
Answer: The value was “++ (≤8 μg/mL)”.

Question: And the “MIC Ec#4” value (Ec #4 (GUE))?
Answer: The value was “+ (≤32 μg/mL)”.

Question: And the LD50 at 5 days [2]?
Answer: Its LD50 at 5 days is 494 mg/kg.

Question: And the “Alive animals at 24 hrs” value ([3]; 6 mg/kg i.v. single bolus)?
Answer: Its value is 0.

Question: And the “Alive animals at 24 hrs” value ([3]; 12.5 mg/kg i.v. single bolus)?
Answer: Its value is 2.

Question: What about the “Alive animals at 24 hrs” value ([3]; 25 mg/kg i.v. single bolus) of the same molecule?
Answer: The value was 5.

Question: And the “Alive animals at 24 hrs” value ([3]; 50 mg/kg i.v. single bolus)?
Answer: Its value is 7.

Question: And the ED50 ([3]; single i.v. bolus one hour after i.p. challenge, 10^8.1 CFU/ml, observed 24 hours)?
Answer: The ED50 was 20.4 mg/kg.

Question: What about the “Ec: MIC Escherichia coli ATCC 25922” value [4] of the same molecule?
Answer: Its value is “+ (≤32 μg/mL)”.

Question: What about the “Kp: MIC Klebsiella pneumoniae ATCC 43816” value [5] of the same molecule?
Answer: The value was “++ (≤8 μg/mL)”.

Question: What about the “MIC Ec#5” value (Ec #5 (DSM22315)) of the same molecule?
Answer: Its value is “+ (≤32 μg/mL)”.

Question: And the “Pa: MIC Pseudomonas aeruginosa ATCC 27853” value [6]?
Answer: The value was “− (>32 μg/mL)”.

Question: What about the IC50 [7] of the same molecule?
Answer: Its IC50 is > 300 nM.

Question: And the “MIC Ec#1” value (Ec #1 (NCTC13476))?
Answer: The value was “+ (≤32 μg/mL)”.

Question: What about the “MIC Kp#4” value (Kp #4 (ATCC BAA1904)) of the same molecule?
Answer: Its value is “++ (≤8 μg/mL)”.

Question: What about the “MIC Kp#2” value (Kp #2 (DUB)) of the same molecule?
Answer: Its value is “++ (≤8 μg/mL)”.

Question: What about the “MIC Ec#3” value (Ec #3 (EGB957)) of the same molecule?
Answer: Its value is “+ (≤32 μg/mL)”.

Question: And the “Ab: MIC Acinetobacter baumannii ATCC 19606” value [8]?
Answer: Its value is “− (>32 μg/mL)”.

Question: With `CN(C)c1cc(NC(=O)CNC(C)(C)C)c(O)c2c1C[C@H]1C[C@H]3[C@H](N(C)C)C(O)=C(C(N)=O)C(=O)[C@@]3(O)C(O)=C1C2=O` [Tigecycline, tigecycline, reference compound] as the molecule, how does the “Alive animals at 24 hrs” value ([3]; 20 mg/kg i.v. single bolus) read?
Answer: Its value is 8.

Question: And the “Alive animals at 24 hrs” value [9]?
Answer: Its value is 8.
